Assay results reported in ChEMBL document CHEMBL4138123, “Design, synthesis and biological evaluation of novel pyrazolochalcones as potential modulators of PI3K/Akt/mTOR pathway and inducers of apoptosis in breast cancer cells” (Eur J Med Chem, 2017).

How the values were obtained:
Format in all cases: functional
SNB-19 = test: Cytotoxicity against human SNB19 cells assessed as growth inhibition after 48 hrs by sulforhodamine B assay; conditions: SNB-19, 48 h; for CC50: read-out: LC50 (the source's name)
U-251 = test: Cytotoxicity against human U251 cells assessed as growth inhibition after 48 hrs by sulforhodamine B assay; conditions: U-251, 48 h
786-0 = test: Cytotoxicity against human 786-0 cells assessed as growth inhibition after 48 hrs by sulforhodamine B assay; conditions: 786-0, 48 h
UO-31 = test: Cytotoxicity against human UO31 cells assessed as growth inhibition after 48 hrs by sulforhodamine B assay; conditions: UO-31, 48 h
BT-549 [1] = test: Cytotoxicity against human BT549 cells assessed as growth inhibition after 48 hrs by sulforhodamine B assay; conditions: BT-549, 48 h
CCRF-CEM = test: Cytotoxicity against human CCRF-CEM cells assessed as cell growth at 0.01 uM after 48 hrs by sulforhodamine B assay relative to control; conditions: read-out: Activity
SK-OV-3 = test: Cytotoxicity against human SKOV3 cells assessed as cell growth at 0.01 uM after 48 hrs by sulforhodamine B assay relative to control; conditions: SK-OV-3, 48 h, read-out: Activity
IGROV-1 [2] = test: Cytotoxicity against human IGROV1 cells assessed as cell growth at 0.01 uM after 48 hrs by sulforhodamine B assay relative to control; conditions: IGROV-1, 48 h, read-out: Activity
HCC 2998 = test: Cytotoxicity against human HCC2998 cells assessed as cell growth at 0.01 uM after 48 hrs by sulforhodamine B assay relative to control; conditions: HCC 2998, 48 h, read-out: Activity
NCI-H460 = test: Cytotoxicity against human NCI-H460 cells assessed as cell growth at 0.01 uM after 48 hrs by sulforhodamine B assay relative to control; conditions: NCI-H460, 48 h, read-out: Activity
SR = test: Cytotoxicity against human SR cells assessed as cell growth at 0.01 uM after 48 hrs by sulforhodamine B assay relative to control; conditions: read-out: Activity
BT-549 [3] = test: Cytotoxicity against human BT549 cells assessed as cell growth at 0.01 uM after 48 hrs by sulforhodamine B assay relative to control; conditions: BT-549, 48 h, read-out: Activity
K562 [4] = test: Cytotoxicity against human K562 cells assessed as cell growth at 0.1 uM after 48 hrs by sulforhodamine B assay relative to control; conditions: K562, 48 h, read-out: Activity
A549 = test: Cytotoxicity against human A549/ATCC cells assessed as cell growth at 0.1 uM after 48 hrs by sulforhodamine B assay relative to control; conditions: A549, 48 h, read-out: Activity
NCI-H23 [5] = test: Cytotoxicity against human NCI-H23 cells assessed as cell growth at 0.1 uM after 48 hrs by sulforhodamine B assay relative to control; conditions: NCI-H23, 48 h, read-out: Activity
SW-620 = test: Cytotoxicity against human SW620 cells assessed as cell growth at 0.1 uM after 48 hrs by sulforhodamine B assay relative to control; conditions: SW-620, 48 h, read-out: Activity
SF-268 = test: Cytotoxicity against human SF268 cells assessed as cell growth at 0.1 uM after 48 hrs by sulforhodamine B assay relative to control; conditions: SF-268, 48 h, read-out: Activity
UACC-62 = test: Cytotoxicity against human UACC62 cells assessed as cell growth at 0.1 uM after 48 hrs by sulforhodamine B assay relative to control; conditions: UACC-62, 48 h, read-out: Activity
IGROV-1 [6] = test: Cytotoxicity against human IGROV1 cells assessed as cell growth at 0.1 uM after 48 hrs by sulforhodamine B assay relative to control; conditions: IGROV-1, 48 h, read-out: Activity
OVCAR-5 = test: Cytotoxicity against human OVCAR5 cells assessed as cell growth at 0.1 uM after 48 hrs by sulforhodamine B assay relative to control; conditions: OVCAR-5, 48 h, read-out: Activity
PC-3 = test: Cytotoxicity against human PC3 cells assessed as cell growth at 0.1 uM after 48 hrs by sulforhodamine B assay relative to control; conditions: PC-3, 48 h, read-out: Activity
RPMI-8226 [7] = test: Cytotoxicity against human RPMI8226 cells assessed as cell growth at 1 uM after 48 hrs by sulforhodamine B assay relative to control; conditions: RPMI-8226, 48 h, read-out: Activity
NCI-H23 [8] = test: Cytotoxicity against human NCI-H23 cells assessed as cell growth at 1 uM after 48 hrs by sulforhodamine B assay relative to control; conditions: NCI-H23, 48 h, read-out: Activity
COLO 205 = test: Cytotoxicity against human COLO205 cells assessed as cell growth at 1 uM after 48 hrs by sulforhodamine B assay relative to control; conditions: COLO 205, 48 h, read-out: Activity
IGROV-1 [9] = test: Cytotoxicity against human IGROV1 cells assessed as cell growth at 1 uM after 48 hrs by sulforhodamine B assay relative to control; conditions: IGROV-1, 48 h, read-out: Activity
OVCAR-8 = test: Cytotoxicity against human OVCAR8 cells assessed as cell growth at 1 uM after 48 hrs by sulforhodamine B assay relative to control; conditions: OVCAR-8, 48 h, read-out: Activity
TK-10 = test: Cytotoxicity against human TK10 cells assessed as cell growth at 1 uM after 48 hrs by sulforhodamine B assay relative to control; conditions: TK-10, 48 h, read-out: Activity
RPMI-8226 [10] = test: Cytotoxicity against human RPMI8226 cells assessed as cell growth at 10 uM after 48 hrs by sulforhodamine B assay relative to control; conditions: RPMI-8226, 48 h, read-out: Activity
IGROV-1 [11] = test: Cytotoxicity against human IGROV1 cells assessed as cell growth at 10 uM after 48 hrs by sulforhodamine B assay relative to control; conditions: IGROV-1, 48 h, read-out: Activity
K562 [12] = test: Cytotoxicity against human K562 cells assessed as cell growth at 100 uM after 48 hrs by sulforhodamine B assay relative to control; conditions: K562, 48 h, read-out: Activity
HT-29 = test: Cytotoxicity against human HT-29 cells assessed as cell growth at 100 uM after 48 hrs by sulforhodamine B assay relative to control; conditions: HT-29, 48 h, read-out: Activity
SF-539 = test: Cytotoxicity against human SF539 cells assessed as cell growth at 100 uM after 48 hrs by sulforhodamine B assay relative to control; conditions: SF-539, 48 h, read-out: Activity
M14 = test: Cytotoxicity against human M14 cells assessed as cell growth at 100 uM after 48 hrs by sulforhodamine B assay relative to control; conditions: M14, 48 h, read-out: Activity
SK-MEL-28 = test: Cytotoxicity against human SK-MEL-28 cells assessed as cell growth at 100 uM after 48 hrs by sulforhodamine B assay relative to control; conditions: SK-MEL-28, 48 h, read-out: Activity
ACHN = test: Cytotoxicity against human ACHN cells assessed as cell growth at 100 uM after 48 hrs by sulforhodamine B assay relative to control; conditions: read-out: Activity
DU-145 = test: Cytotoxicity against human DU145 cells assessed as cell growth at 100 uM after 48 hrs by sulforhodamine B assay relative to control; conditions: DU-145, 48 h, read-out: Activity

## COc1cc2c(cc1OC)C(=O)/C(=C/c1cc(-c3ccc4c(c3)OCO4)n[nH]1)C2
SNB-19
  GI50: 1550 nM
  TGI: 2960 nM
  CC50: 5630 nM
U-251
  GI50: 1090 nM
  LC50: 4900 nM
  TGI: 2310 nM
786-0
  GI50: 1610 nM
  LC50: 5540 nM
  TGI: 2990 nM
UO-31
  GI50: 1290 nM
  LC50: 5510 nM
  TGI: 2670 nM
BT-549 [1]
  GI50: 1620 nM
  LC50 (concentration killing 50% of cells): 5710 nM
  TGI: 3040 nM
CCRF-CEM
  growth at 0.01 µM: 97%
SK-OV-3
  growth at 0.01 µM: 102%
IGROV-1 [2]
  growth at 0.01 µM: 100%
HCC 2998
  growth at 0.01 µM: 92%
NCI-H460
  growth at 0.01 µM: 99%
SR
  growth at 0.01 µM: 97%
BT-549 [3]
  growth at 0.01 µM: 96%
K562 [4]
  growth at 0.1 µM: 94%
A549
  growth at 0.1 µM: 99%
NCI-H23 [5]
  growth at 0.1 µM: 93%
SW-620
  growth at 0.1 µM: 99%
SF-268
  growth at 0.1 µM: 96%
UACC-62
  growth at 0.1 µM: 106%
IGROV-1 [6]
  growth at 0.1 µM: 88%
OVCAR-5
  growth at 0.1 µM: 92%
PC-3
  growth at 0.1 µM: 89%
RPMI-8226 [7]
  growth at 1 µM: -24%
NCI-H23 [8]
  growth at 1 µM: 92%
COLO 205
  growth at 1 µM: 94%
IGROV-1 [9]
  growth at 1 µM: 86%
OVCAR-8
  growth at 1 µM: 84%
TK-10
  growth at 1 µM: 106%
RPMI-8226 [10]
  growth at 10 µM: -59%
IGROV-1 [11]
  growth at 10 µM: -44%
K562 [12]
  growth at 100 µM: 4%
HT-29
  growth at 100 µM: -70%
SF-539
  growth at 100 µM: -94%
M14
  growth at 100 µM: -80%
SK-MEL-28
  growth at 100 µM: -92%
ACHN
  growth at 100 µM: -89%
DU-145
  growth at 100 µM: -88%

## COc1ccc(-c2cc(/C=C/C(=O)c3cc(OC)c(OC)c(OC)c3)[nH]n2)cc1OC
SNB-19
  GI50: 1800 nM
  TGI: 5320 nM
  CC50: 27100 nM
U-251
  GI50: 1240 nM
  LC50: 5130 nM
  TGI: 2530 nM
786-0
  GI50: 1500 nM
  LC50: 5600 nM
  TGI: 2900 nM
UO-31
  GI50: 1270 nM
  LC50: 5290 nM
  TGI: 2590 nM
BT-549 [1]
  GI50: 1360 nM
  LC50 (concentration killing 50% of cells): 6320 nM
  TGI: 2930 nM
CCRF-CEM
  growth at 0.01 µM: 97%
SK-OV-3
  growth at 0.01 µM: 97%
IGROV-1 [2]
  growth at 0.01 µM: 103%
HCC 2998
  growth at 0.01 µM: 95%
NCI-H460
  growth at 0.01 µM: 100%
SR
  growth at 0.01 µM: 93%
BT-549 [3]
  growth at 0.01 µM: 96%
K562 [4]
  growth at 0.1 µM: 94%
A549
  growth at 0.1 µM: 98%
NCI-H23 [5]
  growth at 0.1 µM: 95%
SW-620
  growth at 0.1 µM: 96%
SF-268
  growth at 0.1 µM: 93%
UACC-62
  growth at 0.1 µM: 98%
IGROV-1 [6]
  growth at 0.1 µM: 97%
OVCAR-5
  growth at 0.1 µM: 92%
PC-3
  growth at 0.1 µM: 93%
RPMI-8226 [7]
  growth at 1 µM: 11%
NCI-H23 [8]
  growth at 1 µM: 87%
COLO 205
  growth at 1 µM: 89%
IGROV-1 [9]
  growth at 1 µM: 93%
OVCAR-8
  growth at 1 µM: 80%
TK-10
  growth at 1 µM: 96%
RPMI-8226 [10]
  growth at 10 µM: -38%
IGROV-1 [11]
  growth at 10 µM: -7%
K562 [12]
  growth at 100 µM: -16%
HT-29
  growth at 100 µM: -66%
SF-539
  growth at 100 µM: -87%
M14
  growth at 100 µM: -74%
SK-MEL-28
  growth at 100 µM: -82%
ACHN
  growth at 100 µM: -84%
DU-145
  growth at 100 µM: -88%
